The compounds below were run on Utrophin A promoter linked to a luciferase reporter gene (assay: Luciferase reporter assay (murine H2K cells), H2K/mdx/Utro A reporter cell line). Conditions: 48 h; test compound concentration 3 μM; mdx mouse H2K Utrophin A reporter cells; read-out: Activity (luciferase level relative to control).
Assay type: cell-based
Procedure: Luciferase Reporter Assay (Murine H2K Cells)
The cell line used for the screen is an immortalized mdx mouse H2K cell line that has been stably transfected with a plasmid containing ≈5 kb fragment of the Utrophin A promoter including the first untranslated exon linked to a luciferase reporter gene.
Under conditions of low temperature and interferon containing media, the cells remain as myoblasts. These are plated into 96 well plates and cultured in the presence of compound for three days. The level of luciferase is then determined by cell lysis and reading of the light output from the expressed luciferase gene utilising a plate luminometer.
Luciferase Assay for 96 Well Plates
The H2K/mdx/Utro A reporter cell line cells were plated out into 96 well plates (Falcon 353296, white opaque) at a density of approximately 5000 cells/well in 190 μl normal growth medium. The plates were then incubated at 33° C. in the presence of 10% CO2 for 24 hrs.
Compounds were dosed by adding 10 μl of diluted compound to each well giving a final concentration of 10 μM (where a different final concentration was required, the amount of compound solution added was amended accordingly). The plates were then incubated for a further 48 hrs. Cells were then lysed in situ following the manufacture's protocols (Promega Steady-Glo Luciferase Assay System(E2520). Then counted for 10 seconds using a plate luminometer (Victor1420).
Compounds for screening were stored at −20° C. as 10 mM stocks in 100% DMSO until required.
Biological activity as assessed using the luciferase reporter assay in murine H2K cells, and the results are shown in Table 1, which also lists the concentration of the test compound solution in μM.

Row | SMILES | activity at 3 µM
1 | O=C(Nc1ccc2c(c1)OCO2)c1nn(CCc2ccc(C(=O)N3CCOCC3)cc2)c2ccccc12 [Compound 92, N-(benzo[d][1,3]dioxol-5-yl)-1-(4-(morpholine-4-carbonyl)phenethyl)-1H-indazole-3-carboxamide] | < 200%

Same assay, conditions: 48 h; test compound concentration 10 μM; mdx mouse H2K Utrophin A reporter cells; read-out: Activity (luciferase level relative to control)

Row | SMILES | activity at 10 µM
2 | CC(C)(C)c1ccc(Cn2nc(C(=O)Nc3ccc4c(c3)OC(F)(F)O4)c3ccccc32)cc1 [Compound 48, 1-(4-tert-butylbenzyl)-N-(2,2-difluorobenzo[d][1,3]dioxol-5-yl)-1H-indazole-3-carboxamide] | < 200%
3 | COc1ccc(NC(=O)c2nn(CCCOc3ccccc3)c3ccccc23)cc1 [Compound 5, N-(4-methoxyphenyl)-1-(3-phenoxypropyl)-1H-indazole-3-carboxamide] | < 200%
4 | O=C(Nc1ccccc1C(F)(F)F)Nc1nn(Cc2ccc(COc3ccc4c(c3)OCO4)cc2)c2ccc(C(F)(F)F)cc12 [Compound 29, 1-(1-(4-((benzo[d][1,3]dioxol-5-yloxy)methyl)benzyl)-5-(trifluoromethyl)-1H-indazol-3-yl)-3-(2-(trifluoromethyl)phenyl)urea] | < 200%
5 | CCc1ccc(Cn2nc(C(=O)Nc3ccc4c(c3)OCCO4)c3ccccc32)cc1 [Compound 158, N-(2,3-dihydrobenzo[b][1,4]dioxin-6-yl)-1-(4-ethylbenzyl)-1H-indazole-3-carboxamide] | 201 to 300%
6 | CC(C)c1ccc(NC(=O)c2nn(Cc3ccc(C(=O)N(C)Cc4ccccc4)cc3)c3ccccc23)cc1 [Compound 22, 1-(4-(benzyl(methyl)carbamoyl)benzyl)-N-(4-isopropylphenyl)-1H-indazole-3-carboxamide] | < 200%
7 | COc1ccc(CCNC(=O)Nc2nn(Cc3ccc(COc4cccc(OC)c4)cc3)c3ccccc23)cc1 [Compound 80, 1-(4-methoxyphenethyl)-3-(1-(4-((3-methoxyphenoxy)methyl)benzyl)-1H-indazol-3-yl)urea] | < 200%
8 | CC(C)c1ccc(NC(=O)c2nn(CCOc3ccc(F)cc3)c3ccccc23)cc1 [Compound 60, 1-(2-(4-fluorophenoxy)ethyl)-N-(4-isopropylphenyl)-1H-indazole-3-carboxamide] | < 200%
9 | CC(C)c1ccc(NC(=O)c2nn(Cc3ccc(C(=O)N4CCOCC4)cc3)c3ccccc23)cc1 [Compound 19, N-(4-isopropylphenyl)-1-(4-(morpholine-4-carbonyl)benzyl)-1H-indazole-3-carboxamide] | > 401%
10 | COc1ccc(NC(=O)c2nn(Cc3ccc(S(C)(=O)=O)cc3)c3ccccc23)cc1 [Compound 34, N-(4-methoxyphenyl)-1-(4-(methylsulfonyl)benzyl)-1H-indazole-3-carboxamide] | 301 to 400%
11 | O=C(Nc1nccs1)c1nn(CCCOc2ccccc2)c2ccccc12 [Compound 16, 1-(3-phenoxypropyl)-N-(thiazol-2-yl)-1H-indazole-3-carboxamide] | > 401%
12 | CS(=O)(=O)c1ccccc1Cn1nc(C(=O)Nc2ccc3c(c2)OCO3)c2ccccc21 [Compound 136, N-(benzo[d][1,3]dioxol-5-yl)-1-(2-(methylsulfonyl)benzyl)-1H-indazole-3-carboxamide] | < 200%
13 | Cc1ccc2c(c1)c(NC(=O)Nc1ccccc1C(C)C)nn2Cc1cc2c(cc1Cl)OCO2 [Compound 13, 1-(1-((6-chlorobenzo[d][1,3]dioxol-5-yl)methyl)-5-methyl-1H-indazol-3-yl)-3-(2-isopropylphenyl)urea] | < 200%
14 | O=C(Nc1nn(Cc2ccc(CN3C(=O)CCC3=O)cc2)c2ccccc12)c1cnc2ccccc2n1 [Compound 33, N-(1-(4-((2,5-dioxopyrrolidin-1-yl)methyl)benzyl)-1H-indazol-3-yl)quinoxaline-2-carboxamide] | < 200%
15 | O=C(Nc1ccc2c(c1)OCCO2)c1nn(Cc2ccc(C(=O)N3CCOCC3)cc2)c2ccc(F)cc12 [Compound 160, N-(2,3-dihydrobenzo[b][1,4]dioxin-6-yl)-5-fluoro-1-(4-(morpholine-4-carbonyl)benzyl)-1H-indazole-3-carboxamide] | < 200%
16 | O=C(Nc1ccc2c(c1)OCO2)c1nn(CCCOc2ccccc2)c2ccccc12 [Compound 45, N-(benzo[d][1,3]dioxol-5-yl)-1-(3-phenoxypropyl)-1H-indazole-3-carboxamide] | > 401%
17 | COc1cccc(OCc2ccc(Cn3nc(NC(=O)Nc4ccc5c(c4)CCC5)c4ccccc43)cc2)c1 [Compound 30, 1-(2,3-dihydro-1H-inden-5-yl)-3-(1-(4-((3-methoxyphenoxy)methyl)benzyl)-1H-indazol-3-yl)urea] | < 200%
18 | O=C(Nc1ccc(OC(F)(F)F)cc1)c1nn(Cc2ccc(C(=O)N3CCOCC3)cc2)c2ccccc12 [Compound 61, 1-(4-(morpholine-4-carbonyl)benzyl)-N-(4-(trifluoromethoxy)phenyl)-1H-indazole-3-carboxamide] | > 401%
19 | CN(Cc1ccccc1)C(=O)c1ccc(Cn2nc(C(=O)Nc3ccc(C(F)(F)F)cc3)c3ccccc32)cc1 [Compound 20, 1-(4-(benzyl(methyl)carbamoyl)benzyl)-N-(4-(trifluoromethyl)phenyl)-1H-indazole-3-carboxamide] | < 200%
20 | O=C(Nc1ccc2c(c1)OCO2)c1nn(Cc2ccc3c(c2)OCO3)c2ccccc12 [Compound 123, N-(benzo[d][1,3]dioxol-5-yl)-1-(benzo[d][1,3]dioxol-5-ylmethyl)-1H-indazole-3-carboxamide] | 201 to 300%
21 | C#CCN(C)S(=O)(=O)c1ccc(Cn2nc(C(=O)Nc3ccc(C(C)C)cc3)c3ccccc32)cc1 [Compound 66, N-(4-isopropylphenyl)-1-(4-(N-methyl-N-(prop-2-ynyl)sulfamoyl)benzyl)-1H-indazole-3-carboxamide] | < 200%
22 | Cc1cccc(NC(=O)Nc2nn(Cc3ccc(COc4ccc5c(c4)OCO5)cc3)c3ccc(C(F)(F)F)cc23)c1 [Compound 51, 1-(1-(4-((benzo[d][1,3]dioxol-5-yloxy)methyl)benzyl)-5-(trifluoromethyl)-1H-indazol-3-yl)-3-m-tolylurea] | < 200%
23 | Cc1cccc(NC(=O)Nc2nn(Cc3ccc(C(F)(F)F)cc3)c3ccccc23)c1 [Compound 15, 1-m-tolyl-3-(1-(4-(trifluoromethyl)benzyl)-1H-indazol-3-yl)urea] | < 200%
24 | O=C(Nc1ccc2c(c1)OCO2)c1nn(Cc2ccsc2)c2ccccc12 [Compound 129, N-(benzo[d][1,3]dioxol-5-yl)-1-(thiophen-3-ylmethyl)-1H-indazole-3-carboxamide] | < 200%
25 | COc1cc(NC(=O)Nc2nn(Cc3cc4c(cc3Cl)OCO4)c3ccccc23)cc(OC)c1 [Compound 52, 1-(1-((6-chlorobenzo[d][1,3]dioxol-5-yl)methyl)-1H-indazol-3-yl)-3-(3,5-dimethoxyphenyl)urea] | < 200%
26 | O=C(Nc1ccc2c(c1)OCO2)c1nn(Cc2ccc(C(=O)N3CCOCC3)cc2)c2ccccc12 [Compound 63, N-(benzo[d][1,3]dioxol-5-yl)-1-(4-(morpholine-4-carbonyl)benzyl)-1H-indazole-3-carboxamide] | > 401%
27 | Cc1ccc(NC(=O)c2nn(Cc3ccc(S(C)(=O)=O)cc3)c3ccccc23)cn1 [Compound 133, N-(6-methylpyridin-3-yl)-1-(4-(methylsulfonyl)benzyl)-1H-indazole-3-carboxamide] | < 200%
28 | COc1ccc(CCNC(=O)Nc2nn(Cc3cc4c(cc3Cl)OCO4)c3ccccc23)cc1 [Compound 37, 1-(1-((6-chlorobenzo[d][1,3]dioxol-5-yl)methyl)-1H-indazol-3-yl)-3-(4-methoxyphenethyl)urea] | < 200%
29 | Cc1cccc(CNC(=O)Nc2nn(Cc3cc4c(cc3Cl)OCO4)c3ccccc23)c1 [Compound 32, 1-(1-((6-chlorobenzo[d][1,3]dioxol-5-yl)methyl)-1H-indazol-3-yl)-3-(3-methylbenzyl)urea] | < 200%
30 | CC(C)(C)c1ccc(Cn2nc(C(=O)Nc3ccc4c(c3)OCO4)c3ccccc32)cc1 [Compound 42, N-(benzo[d][1,3]dioxol-5-yl)-1-(4-tert-butylbenzyl)-1H-indazole-3-carboxamide] | > 401%
31 | O=C(Nc1ccc2c(c1)OCO2)c1nn(Cc2ccon2)c2ccccc12 [Compound 145, N-(benzo[d][1,3]dioxol-5-yl)-1-(isoxazol-3-ylmethyl)-1H-indazole-3-carboxamide] | < 200%

Same assay, conditions: 48 h; test compound concentration 30 μM; mdx mouse H2K Utrophin A reporter cells; read-out: Activity (luciferase level relative to control)

Row | SMILES | activity at 30 µM
32 | O=C(Nc1ccccc1OC(F)(F)F)Nc1nn(Cc2ccc(C(F)(F)F)cc2)c2ccccc12 [Compound 40, 1-(2-(trifluoromethoxy)phenyl)-3-(1-(4-(trifluoromethyl)benzyl)-1H-indazol-3-yl)urea] | < 200%
33 | CS(=O)(=O)c1ccc(Cn2ccc(C(=O)Nc3ccc4c(c3)OCO4)n2)cc1 [Compound 148, N-(benzo[d][1,3]dioxol-5-yl)-1-(4-(methylsulfonyl)benzyl)-1H-pyrazole-3-carboxamide] | < 200%

Source: patent US20100305120A1, “COMPOUNDS FOR TREATING MUSCULAR DYSTROPHY” (BIOMARIN IGA LIMITED, priority 2008, published 2010)
